Values quoted from earlier work as cited in US6743775B2, “Slow release formulations comprising anionic polysaccharide” (Alpenstock Holdings Limited, priority 1998, dated 2004).

Conditions: gelatine alone; Schwartz et al., Principles of Surgery 1979

gelatine
haemostatic effect: only displays a haemostatic effect after an addition of thrombin
